Structures can show the parent of a compound that is named as a salt.
Legend:
SMN2 mRNA = assay: RT-qPCR splicing assay, SMN2 canonical junction (CJ) mRNA; format: cell-based, human; conditions: Homo sapiens; Table 5 panel; canonical junction qPCR; compound concentration having 50% response in CJ decrease; read-out: SMN2 IC50 (decrease in CJ mRNA levels)
Summary of the method: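 A673 or K562 cells were treated for 24 h at 37 °C with compound in 11-point 3-fold dilution (top 10 uM final, DMSO ≤0.25%). Lysates then went to one-step RT-qPCR measuring canonical-junction mRNA, normalized to GAPDH, GUSB or PPIA.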

HTT = assay: HiBiT protein abundance assay, HTT HiBiT K562 cell line; format: cell-based, human; conditions: HiBiT K562 cell line, 24 hours, top dose 10 μM; read-out: Effect on protein abundance, HTT (IC50 category)
Summary of the method: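 K562 knock-in lines with endogenous HiBiT-tagged target, 10,000 cells/well in IMDM + FBS, treated 24 h at 37° C with 10-point 3-fold dilutions (top 10 μM final; DMSO ≤0.25%). Lytic Nano-Glo HiBiT luminescence normalized to untagged K562 baseline and DMSO controls; IC50 = concentration giving 50% abundance via four-parameter fit.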

[1] = system: K562 (human chronic myelogenous leukemia) cells; assay: Cell Titer Glo 2.0 cell viability assay; format: cell-based; conditions: Homo sapiens, K562, 72 h, K562 cells, 72 hours, Cell Titer Glo 2.0; read-out: K562 GI50

## Cc1cn2cc(-c3cc(F)c4c(=O)n([C@@H]5CNC[C@@H]5C)ccc4c3)cc(F)c2n1 [Compound 653, 8-fluoro-6-(8-fluoro-2-methyl-imidazo[1,2-a]pyridin-6-yl)-2-[(3S,4S)-4-methylpyrrolidin-3-yl]isoquinolin-1-one]
SMN2 mRNA
  IC50: 100 to 1000 nM
HTT
  IC50: > 10000 nM
[1]
  GI50: > 10000 nM

## Cc1cn2nc(-c3cc(O)c4c(=O)n(C5CCN(C)CC5)ncc4c3)cc(C)c2n1 [Compound 543]
SMN2 mRNA
  IC50: < 100 nM
HTT
  IC50: < 100 nM
[1]
  GI50: 100 to 1000 nM

## CNc1cc(-c2cc(C)c3nc(C)cn3n2)cc2ccn([C@@H]3CCNC3)c(=O)c12 [Compound 648, 6-(2,8-dimethylimidazo[1,2-b]pyridazin-6-yl)-8-(methylamino)-2-[(3R)-pyrrolidin-3-yl]isoquinolin-1-one]
SMN2 mRNA
  IC50: 100 to 1000 nM
HTT
  IC50: > 10000 nM
[1]
  GI50: 1000 to 10000 nM

## CN1CCN(c2ccc3c(=O)n(-c4ccc5cn(C)nc5c4)cnc3c2)CC1 [Compound 178]
SMN2 mRNA
  IC50: > 10000 nM
HTT
  IC50: > 10000 nM
[1]
  GI50: > 10000 nM

## CC(=O)Nc1cc(-c2cc(C)c3nc(C)cn3n2)cc2ccn([C@@H]3CCNC3)c(=O)c12 [Compound 650, N-[6-(2,8-dimethylimidazo[1,2-b]pyridazin-6-yl)-1-oxo-2-[(3R)-pyrrolidin-3-yl]-8-isoquinolyl]acetamide]
SMN2 mRNA
  IC50: 1000 to 10000 nM
HTT
  IC50: > 10000 nM
[1]
  GI50: 1000 to 10000 nM

## Cc1nc2c(C)cc(-c3ccc4c(=O)n(C5CCNC6(CC6)C5)ncc4c3)cc2o1 (stereo not drawn) [Compound 513]
SMN2 mRNA
  IC50: 100 to 1000 nM
HTT
  IC50: 100 to 1000 nM
[1]
  GI50: 1000 to 10000 nM

## Cc1cn2nc(-c3cc(F)c4c(=O)n([C@@H]5CCN(C)C6(CC6)C5)ncc4c3)cc(C)c2n1 [Compound 637]
SMN2 mRNA
  IC50: < 100 nM
HTT
  IC50: < 100 nM
[1]
  GI50: 100 to 1000 nM

## COC(=O)c1cc(-c2ccc3c(=O)n(C4CCNCC4)ccc3c2)nn2cc(C)nc12 [Compound 517, methyl 2-methyl-6-[1-oxo-2-(4-piperidyl)-6-isoquinolyl]imidazo[1,2-b]pyridazine-8-carboxylate]
SMN2 mRNA
  IC50: < 100 nM
HTT
  IC50: 1000 to 10000 nM
[1]
  GI50: 1000 to 10000 nM

## Cc1cn2nc(-c3ccc4c(=O)n(C5CCNCC5)ccc4c3)cc(CO)c2n1 [Compound 525, 6-[8-(hydroxymethyl)-2-methyl-imidazo[1,2-b]pyridazin-6-yl]-2-(4-piperidyl) isoquinolin-1-one]
SMN2 mRNA
  IC50: < 100 nM
HTT
  IC50: < 100 nM
[1]
  GI50: 100 to 1000 nM

## Cc1cn2nc(-c3ccc4c(=O)n(C5CCNCC5)ccc4c3)cc(Oc3cccc(F)c3)c2n1 [Compound 545, 6-[8-(3-fluorophenoxy)-2-methyl-imidazo[1,2-b]pyridazin-6-yl]-2-(4-piperidyl)isoquinolin-1-one; hydrochloride]
SMN2 mRNA
  IC50: < 100 nM
HTT
  IC50: < 100 nM
[1]
  GI50: < 100 nM

## Cc1cn2nc(-c3ccc4c(=O)n(C5CCNCC5)ncc4c3)cc(Oc3ccccc3)c2n1 [Compound 549, 6-(2-methyl-8-phenoxy-imidazo[1,2-b]pyridazin-6-yl)-2-(4-piperidyl) phthalazin-1-one]
SMN2 mRNA
  IC50: < 100 nM
HTT
  IC50: < 100 nM
[1]
  GI50: 100 to 1000 nM

## Cc1cn2nc(-c3cc(N)c4c(=O)n([C@H]5CCNC5)ccc4c3)cc(C)c2n1 [Compound 645, 8-amino-6-(2,8-dimethylimidazo[1,2-b]pyridazin-6-yl)-2-[(3S)-pyrrolidin-3-yl]isoquinolin-1-one]
SMN2 mRNA
  IC50: 100 to 1000 nM
HTT
  IC50: 1000 to 10000 nM
[1]
  GI50: 1000 to 10000 nM

## COc1cccc(Oc2cc(-c3ccc4c(=O)n(C5CCNCC5)ccc4c3)nn3cc(C)nc23)c1 [Compound 547, 6-[8-(3-methoxyphenoxy)-2-methyl-imidazo[1,2-b]pyridazin-6-yl]-2-(4 piperidyl) isoquinolin-1-one]
SMN2 mRNA
  IC50: < 100 nM
HTT
  IC50: < 100 nM
[1]
  GI50: < 100 nM

## Cc1cn2cc(-c3cc(F)c4c(=O)n([C@H]5CNC[C@@H]5F)ccc4c3)cc(F)c2n1 [Compound 644]
SMN2 mRNA
  IC50: 100 to 1000 nM
HTT
  IC50: > 10000 nM
[1]
  GI50: 1000 to 10000 nM

## Cc1cn2nc(-c3ccc4c(=O)n(C5CCN(CCF)CC5)ncc4c3)cc(C)c2n1 [Compound 515]
SMN2 mRNA
  IC50: < 100 nM
HTT
  IC50: 100 to 1000 nM
[1]
  GI50: 1000 to 10000 nM

— patent US20250332173A1, “COMPOUNDS AND METHODS FOR MODULATING NUCLEIC ACID SPLICING” (REMIX THERAPEUTICS INC., priority 2021, published 2025)
